Test [1] addresses anti-acetylamantadine affinity-purified antibodies absorbed with amantadine. Description: Competitive ELISA with affinity-purified antibodies against acetylamantadine absorbed with amantadine. It counts as binding, rabbit. Particulars: soluble competitor incubated one hour with antibodies; plates coated with streptavidin and biotinylated acetylamantadine 2 ng/mL; FIG. 2. The protocol: The affinity-purified antibodies against acetylamantadine were flowed over a column of cyanogen-bromide coupled agarose beads conjugated with amantadine and the peak of IgG was taken.
Enzyme-linked immunosorbent assay (ELISA) plates were coated with the biotin-binding protein streptavidin at 2 μg/mL and blocked with skim milk. The ELISA plates were then washed with phosphate-buffered saline with an automated washer. Biotinylated acetylamantadine at 2 ng/mL was added to the streptavidin-coated ELISA plates so that acetylamantadine was bound to the streptavidin. The ELISA plates were then washed to remove the free biotinylated acetylamantadine. The soluble acetylamantadine or the amatidine was titrated in a separate 96-well plate and incubated for an hour with a small, previously determined concentration of anti-acetylamantadine affinity-purified antibodies absorbed with amantadine that gives a clear signal in the ELISA plates coated with acetylamantadine. […]
The ELISA was incubated for two hours and then the ELISA was developed by adding goat antibodies against rabbit IgG conjugated with alakine phosphatase. The substrate was added and the ELISA developed by standard methods and the optical densities were assayed by an ELISA reader and are shown in FIG. 1. […] If one makes quadruplicate assays of samples of urine, one can accurately quantify acetylamantadine in the assay. […]

The target in test [2] is affinity-purified antibodies against acetylamantadine. Nature of the test: Competitive ELISA with affinity-purified antibodies against acetylamantadine, not absorbed with amantadine. It is filed as binding, rabbit. Particulars: FIG. 3. For orientation: An ELISA detects its analyte on a solid surface through an enzyme-linked reagent.
The target in test [3] is serum of a rabbit immunized repeatedly against acetylamantadine. Nature of the test: Competitive ELISA with serum of a rabbit immunized repeatedly against acetylamantadine. It is filed as binding. The settings on record: dilution of serum; FIG. 4. As for the experimental part:
A New Zealand white rabbit was immunized intramuscularly with 250 μg of the acetylamantadine-ovalbumin conjugate emulsified in complete Freund's adjuvant. The rabbit was boosted multiple times with acetylamantadine-ovalbumin conjugate, twice with 100 μg of acetylamantadine-conjugate keyhole-limpet hemocyanin and once with 4 pg of avidin coupled with an excess of biotinylated acetylamantadine with alum as an adjuvant. The rabbit was boosted with 100 μg of the acetylamantadine-ovalbumin conjugate 14 days before the rabbit was euthanized and bled out.
The rabbit blood was allowed to clot and the sera were collected. […]
Enzyme-linked immunosorbent assay (ELISA) plates were coated with the biotin-binding protein streptavidin at 2 μg/mL and blocked with skim milk. […] The soluble acetylamantadine or the amatidine was titrated in a separate 96-well plate and incubated for an hour with a small, previously determined concentration of anti-acetylamantadine affinity-purified antibodies absorbed with amantadine that gives a clear signal in the ELISA plates coated with acetylamantadine. […]
The ELISA was incubated for two hours and then the ELISA was developed by adding goat antibodies against rabbit IgG conjugated with alakine phosphatase. The substrate was added and the ELISA developed by standard methods and the optical densities were assayed by an ELISA reader and are shown in FIG. 1. […]

For test [4], the system named is serum at 1:200 dilution. Nature of the test: Acetylamantadine competitive ELISA using serum at 1:200 dilution (FIG. 5). It is filed as binding, rabbit. The settings on record: serum 1:200; coating 2 ug/ml streptavidin and 6 ng/ml biotinylated acetylamantadine; tested 0.025 to 250 ng/ml. The protocol: It will accordingly be understood by a person skilled in the art that the immunological assay disclosed herein may be used to detect or quantify acetylamantadine in a patient who has taken a small dose of amantadine. This is shown in FIG. 5 which illustrates the results of an acetylamandine competitive ELISA with signal reading against acetylamantadine competitive concentration. The ELISA plate coating was 2 ug/ml streptavidin and 6 ng/ml biotinylated acetylamantadine. The competition ELISA using serum at 1:200 dilution against acetylamantadine ranging from 0.025 ng/ml to 250 ng/ml. Complete inhibition inhibition occurs near 100 ng/ml of soluble acetylamantadine. The detection limit (sensitivity) is near 0.5 ng/ml to 1.0 ng/ml The quantification of acetylamantadine can be used to quantify SSAT activity and elevated SSAT activity is an indication of diseases including, but not limited, to inflammations and cancers.

For the compound `CC(=O)NC12CC3CC(CC(C3)C1)C2` [acetylamantadine], the “concentration giving significant inhibition (50%) of the binding in the ELISA” value is approximately 400 pg/mL in test [1], approximately 1.3 ng/mL in test [2] and approximately 300 pg/mL in test [3]. Also, the “concentration at which complete inhibition occurs” value in test [4] was approximately 100 ng/mL.

Turning to `NC12CC3CC(CC(C3)C1)C2` [amantadine], the “concentration giving significant inhibition (50%) of the binding in the ELISA” value is 4e+07 pg/mL in test [1], 100000 ng/mL in test [2] and 1e+08 pg/mL in test [3].

Source of the values: patent US20160223527A1, “An Immunological Assay To Detect And Quantify Acetylamantadine” (BIOMARK TECHNOLOGIES INC, priority 2013, published 2016).
